Here are results for 29 compounds from patent US9012365B2, “Compatibility agents for herbicidal formulations comprising 2,4-(Dichlorophenoxy) acetic acid salts” (priority 2006, dated 2015).

Holding throughout (type): physicochemical
Data set [1] can be described thus: System appearance and pH after adding chemicals into System A. An excerpt:
System appearance after adding various chemicals into “System A” which was 100 g of 3% 2,4-D DMA (50%)+90% water (1000 ppm)+7% Ammonium sulfate (40%).

Data set [2] can be described thus: Electrolyte tolerance: 40% AMS added into 10 g 0.13% tested chemical in DI water. As to conditions: for Appearance, added 40% AMS wt into 10 g 0.13% tested chemical in DI water: at 0 g AMS added, or at all additions (All); for Solubility / compatibility in water or AMS solution (in words): without 2,4-D amine. How it is done: (§1) In example 1, the electrolyte tolerance of 6 chemicals with and without the presence of 2,4-D amine was evaluated in ammonium sulfate system.

The nature of data set [3]: Appearance of 10 g solution of (2.5 wt % ai 2,4-D DMA + tested chemical) after adding 40% AMS. The following applies: for 0 gram Appearance / Addition Weight of 40% AMS: System was clear after adding / Addition Weight of 40% AMS: System was cloud after adding: 0.13 wt % a.i. of tested chemical, 2.5 wt % ai 2,4-D DMA; for 0 gram Appearance: 0 gram 40% AMS; for Addition Weight of 40% AMS: System was clear after adding / Addition Weight of 40% AMS: System was cloud after adding: 10 g solution; for Appearance, added 40% AMS wt into 10 g (2.5% 2,4-D + 0.13% tested chemical in DI water): at 0 g AMS added, or at all additions (All); for Added 40% AMS wt into 10 g (2.5% 2,4-D + 0.13% tested chemical in DI water), hazy / Added 40% AMS wt into 10 g (2.5% 2,4-D + 0.13% tested chemical in DI water), still clear: Table of Example 1. How it is done:
In this example, the appearance of a 10 g solution of (2.5 wt % ai 2,4-D DMA+tested chemical) was evaluated after adding 40% AMS

A short description of data set [4]: Solubility of tested chemical in DI water. How it is done:
as §1

A short description of data set [5]: Solubility of tested chemical in 40% AMS (ammonium sulfate). The method, then:
as §1

Data set [6] can be described thus: Appearance of 10 g solution of (2.5 wt % ai 2,4-D DMA + tested chemical) after adding 40% AMS. The following applies: summary statement of the description.
The nature of data set [7]: Crystal formation of 2,4-D in 1000 ppm hard water + AMS after post-adding surfactant. As to conditions: for Appearance of sample: 0.069 g surfactant added to 3% 2,4-DMA (50%) + 90% water (1000 ppm hardness) + 7% AMS (40%), room temperature. An excerpt:
FIG. 3 is a photograph illustrating the effect of various concentrations of cocoamine-2EO (“Coco-2”) and/or tallow-10EO (“Tallow-10”) on crystal formation of 2,4-D. (A) 0% Coco-2/0% Tallow-10. (B) 100% Coco-2/0% Tallow-10. (C) 45% Coco-2/55% Tallow-10. (D) 50% Coco-2/50% Tallow-10. (E) 55% Coco-2/45% Tallow-10.(F) 60% Coco-2/40% Tallow-10. (G) 0% Coco-2/100% Tallow-10.
In FIG. 3, sample (0:0) was 3% 2,4-DMA (50%)+90% water (1000 ppm hardness)+7% AMS (40%) and it readily formed crystals at room temperature.
The first sample, (0:0), on the left had no surfactant and it had about 15% crystal at the bottom. The rest of the samples had 0.069 g surfactant post-added to the first sample. […] Sample (0:100) was a little hazy with ˜5% crystal at bottom.

Setting [8] is: added into 100 g System A, added wt 0.815 g Ethoquad, 0.079 g NH4OH, 0.091 g dimethylamine, 1.07 g NaOH.
[9] abbreviates: added wt 1.35 grams into 100 g System A.

`N.O` [NH4OH 28-30%, NH4OH]: in data set [1] (setting [8]), the Appearance result is reported as “hazy” and the pH is on record as 8.
In the case of Castor oil ethoxylate-10EO, in data set [2], the “Appearance, added 40% AMS wt into 10 g 0.13% tested chemical in DI water” value is listed as “All hazy” and the “Solubility / compatibility in water or AMS solution (in words)” value was “little compatibility”. Moreover, in data set [3], the “0 gram Appearance” value is on record as “Haze”; the “Addition Weight of 40% AMS: System was clear after adding” value was “Haze”; the “Addition Weight of 40% AMS: System was cloud after adding” value was 0 grams; the “Appearance, added 40% AMS wt into 10 g (2.5% 2,4-D + 0.13% tested chemical in DI water)” value is reported as “All hazy”. In addition, in data set [4], the “Solubility of tested chemical in DI Water” value (“Solubility … in DI Water” below) was <0.007%. Besides, the “Solubility of testes chemical in 40% AMS” value in data set [5] is <0.007%.
Take `CCCCC(CC)COC(=O)CC(C(=O)OCC(CC)CCCC)S(=O)(=O)[O-].[Na+]` (stereo not shown) [Sodium dioctyl sulfonsuccinate]: the “Suitability for increasing the solubility of 2,4-D non-amine salt (in words)” value in data set [6] is recorded as “ineffective”. For the same compound, in data set [3], the “0 gram Appearance” value is “very cloudy”, the “Addition Weight of 40% AMS: System was clear after adding” value is “very cloudy” and the “Addition Weight of 40% AMS: System was cloud after adding” value turned out to be 0 grams.
Regarding `CN1CCCC1=O` [Methyl-2-pyrrolidinone], in data set [6], the “Suitability for increasing the solubility of 2,4-D non-amine salt (in words)” value was “ineffective”. Further, in data set [3], the “0 gram Appearance” value is “Clear”, the “Addition Weight of 40% AMS: System was clear after adding” value turned out to be 0.36 grams and the “Addition Weight of 40% AMS: System was cloud after adding” value is reported as 0.567 grams.
In the case of `[Na+].[OH-]` [10% NaOH, NaOH], in data set [1] (setting [8]), the Appearance result was “clear” and the pH came to 6. Further, in data set [1] (setting [9]), the Appearance entry is on record as “crystals re-appeared” and the pH was determined as 10.
In the case of Hexyl glycoside, in data set [2], the “Appearance, added 40% AMS wt into 10 g 0.13% tested chemical in DI water” value is recorded as “All clear”; the “Solubility / compatibility in water or AMS solution (in words)” value is “excellent solubility in water and electrolyte tolerance”. For the same compound, in data set [3], the “Compatibility in 2,4-D amine and AMS solution (in words)” value is “poor compatibility agent”; the “0 gram Appearance” value is listed as “Clear”; the “Addition Weight of 40% AMS: System was clear after adding” value is on record as 0.179 grams; the “Addition Weight of 40% AMS: System was cloud after adding” value is 0.359 grams. In data set [3], the “Added 40% AMS wt into 10 g (2.5% 2,4-D + 0.13% tested chemical in DI water), hazy” value was 0.36 g hazy; the “Added 40% AMS wt into 10 g (2.5% 2,4-D + 0.13% tested chemical in DI water), still clear” value is 0.18 g; the “Appearance, added 40% AMS wt into 10 g (2.5% 2,4-D + 0.13% tested chemical in DI water)” value was “clear”. Moreover, in data set [4], the “Solubility … in DI Water” value was “All clear”. Further, the “Solubility of testes chemical in 40% AMS” value in data set [5] is reported as “All clear”.
As to `CNC` [Dimethylamine 40%, Dimethylamine], in data set [1] (setting [8]), the Appearance result is “slightly hazy” and the pH is on record as 7.8.
Consider `CC(C)O` [Isopropyl alcohol], for which, in data set [6], the “Suitability for increasing the solubility of 2,4-D non-amine salt (in words)” value is “ineffective”. Further, in data set [3], the “0 gram Appearance” value was “Clear” and the “Addition Weight of 40% AMS: System was cloud after adding” value is listed as 0.461 grams.
Take ethoxylated (2EO) cocoamide oxides: the “Suitability for increasing the solubility of 2,4-D non-amine salt (in words)” value in data set [6] is recorded as “ineffective”.
Consider Tallowamine-10EO, for which, in data set [3], the “0 gram Appearance” value is “Clear”, the “Addition Weight of 40% AMS: System was clear after adding” value is given as 1.503 grams and the “Addition Weight of 40% AMS: System was cloud after adding” value was 1.717 grams. In addition, the Appearance of sample entry in data set [7] was “dissolved most crystals”. For the same compound, the Appearance of sample entry in data set [7] (listed as Sample (0:100)) was “a little hazy”. For the same compound, in data set [7] (0.069 g surfactant post-added to sample (0:0)), the Crystal at bottom is listed as ~5%.
Regarding Castor oil ethoxylate-55EO, the “Appearance, added 40% AMS wt into 10 g 0.13% tested chemical in DI water” value in data set [2] is listed as “clear”. In data set [2] (no 2,4-D), the “Added 40% AMS wt into 10 g 0.13% tested chemical in DI water, hazy” value was 3.74 hazy g and the “Added 40% AMS wt into 10 g 0.13% tested chemical in DI water, still clear” value worked out at 3.63 g. In addition, in data set [3], the “0 gram Appearance” value is “Clear”; the “Addition Weight of 40% AMS: System was clear after adding” value was 0.476 grams; the “Addition Weight of 40% AMS: System was cloud after adding” value turned out to be 0.554 grams; the “Added 40% AMS wt into 10 g (2.5% 2,4-D + 0.13% tested chemical in DI water), hazy” value was determined as 0.55 g. Besides, in data set [3], the “Added 40% AMS wt into 10 g (2.5% 2,4-D + 0.13% tested chemical in DI water), still clear” value is 0.48 g and the “Appearance, added 40% AMS wt into 10 g (2.5% 2,4-D + 0.13% tested chemical in DI water)” value was “clear”. In addition, in data set [4], the “Solubility … in DI Water” value is recorded as >20%.
Regarding 2-ethylhexyl glycoside, in data set [3], the “0 gram Appearance” value is reported as “Clear” and the “Addition Weight of 40% AMS: System was cloud after adding” value came to 0.226 grams.
In the case of Nonylphenol-4EO, in data set [3], the “0 gram Appearance” value is recorded as “cloudy”, the “Addition Weight of 40% AMS: System was clear after adding” value is recorded as “cloudy” and the “Addition Weight of 40% AMS: System was cloud after adding” value was 0 grams.
Regarding Tall oil fatty acid-4EO, in data set [3], the “0 gram Appearance” value is “very cloudy”, the “Addition Weight of 40% AMS: System was clear after adding” value is “very cloudy” and the “Addition Weight of 40% AMS: System was cloud after adding” value is recorded as 0 grams.
Consider C10-12 alcohol ethoxylate (5EO), for which, in data set [3], the “0 gram Appearance” value is given as “Clear”, the “Addition Weight of 40% AMS: System was clear after adding” value is reported as 1.035 grams and the “Addition Weight of 40% AMS: System was cloud after adding” value amounted to 1.226 grams.
For Nonylphenol-30EO, in that order: “Clear”, 0.487 grams and 0.584 grams.
On to 2-propylheptanol-5 EO, for which, in data set [3], the “0 gram Appearance” value is given as “Clear” and the “Addition Weight of 40% AMS: System was cloud after adding” value was determined as 0.633 grams.
Turning to Tallow acid + triethanolamine + 10EO, in data set [3], the “0 gram Appearance” value was “Clear”, the “Addition Weight of 40% AMS: System was clear after adding” value came out at 2.087 grams and the “Addition Weight of 40% AMS: System was cloud after adding” value was determined as 3.049 grams.
For Nonylphenol-12EO, in data set [3], the “0 gram Appearance” value was “Clear”, the “Addition Weight of 40% AMS: System was clear after adding” value turned out to be 0.415 grams and the “Addition Weight of 40% AMS: System was cloud after adding” value amounted to 0.502 grams.
For Tallowamine-6EO, in data set [3], the “0 gram Appearance” value is “Clear”, the “Addition Weight of 40% AMS: System was clear after adding” value is 1.485 grams and the “Addition Weight of 40% AMS: System was cloud after adding” value worked out at 1.751 grams.
For the compound Iso C13 etheramine-5EO, in data set [3], the “0 gram Appearance” value is reported as “Clear”, the “Addition Weight of 40% AMS: System was clear after adding” value stood at 1.732 grams and the “Addition Weight of 40% AMS: System was cloud after adding” value amounted to 2.045 grams.
Regarding Cocoamine-2EO oxide, in data set [3], the “0 gram Appearance” value is listed as “Clear” and the “Addition Weight of 40% AMS: System was cloud after adding” value is given as 0.096 grams.
Take Coco duoamine-3EO: in data set [3], the “0 gram Appearance” value is “Clear”, the “Addition Weight of 40% AMS: System was clear after adding” value is on record as 3.521 grams and the “Addition Weight of 40% AMS: System was cloud after adding” value turned out to be 4.058 grams.
For the compound Tallowamine-15EO methylchloride, in data set [3], the “0 gram Appearance” value is reported as “Clear”, the “Addition Weight of 40% AMS: System was clear after adding” value is 1.731 grams and the “Addition Weight of 40% AMS: System was cloud after adding” value stood at 2.014 grams.
For the compound Alkyl ether citrate, in data set [3], the “0 gram Appearance” value is “Clear” and the “Addition Weight of 40% AMS: System was cloud after adding” value is listed as 0.509 grams.
In the case of `CCCCCCCCO` [octanol], the “Suitability for increasing the solubility of 2,4-D non-amine salt (in words)” value in data set [6] is reported as “ineffective”.
For the compound Tallowamine-2EO, in data set [3], the “0 gram Appearance” value is “Clear”, the “Addition Weight of 40% AMS: System was clear after adding” value is on record as 1.31 grams and the “Addition Weight of 40% AMS: System was cloud after adding” value came out at 1.513 grams.
For Soya acid ethoxylate-10EO, in data set [3], the “0 gram Appearance” value is given as “Clear”, the “Addition Weight of 40% AMS: System was clear after adding” value stood at 0.482 grams and the “Addition Weight of 40% AMS: System was cloud after adding” value stood at 0.756 grams.
For C8-10 glycosides [AG 6210], in data set [3], the “0 gram Appearance” value was “Clear”, the “Addition Weight of 40% AMS: System was clear after adding” value was 1 grams and the “Addition Weight of 40% AMS: System was cloud after adding” value is listed as 1.212 grams.
